Results published in paper PMC9569420 (Communications Biology, 2022).

Key:
[1] = biological target: T1, MARK2/PAR-1Ba (Homo sapiens, UniProt Q7KZI7); test: HotSpot kinase assay; format: biochemical; settings: read-out: % Enzyme Activity (relative to DMSO controls)
T1 construct: purchased Reaction Biology Corporation

[2] = biological target: T2, ALK1/ACVRL1 (Homo sapiens, UniProt P37023); test: HotSpot kinase assay; format: biochemical; settings: read-out: % Enzyme Activity (relative to DMSO controls)
T2 construct: purchased Reaction Biology Corporation

[3] = biological target: T3, WNK1 (Homo sapiens, UniProt Q9H4A3); test: HotSpot kinase assay; format: biochemical; settings: read-out: % Enzyme Activity (relative to DMSO controls)
T3 construct: purchased Reaction Biology Corporation

[4] = biological target: T4, CAMK2g (Homo sapiens, UniProt Q13555); test: HotSpot kinase assay; format: biochemical; settings: read-out: % Enzyme Activity (relative to DMSO controls)
T4 construct: purchased Reaction Biology Corporation

[5] = biological target: T5, FRK/PTK5 (Homo sapiens, UniProt P42685); test: HotSpot kinase assay; format: biochemical; settings: read-out: % Enzyme Activity (relative to DMSO controls)
T5 construct: purchased Reaction Biology Corporation

[6] = biological target: T6, FGFR2 (Homo sapiens, UniProt P21802); test: HotSpot kinase assay; format: biochemical; settings: read-out: % Enzyme Activity (relative to DMSO controls)
T6 construct: purchased Reaction Biology Corporation
T6 sequence (P21802 22-821): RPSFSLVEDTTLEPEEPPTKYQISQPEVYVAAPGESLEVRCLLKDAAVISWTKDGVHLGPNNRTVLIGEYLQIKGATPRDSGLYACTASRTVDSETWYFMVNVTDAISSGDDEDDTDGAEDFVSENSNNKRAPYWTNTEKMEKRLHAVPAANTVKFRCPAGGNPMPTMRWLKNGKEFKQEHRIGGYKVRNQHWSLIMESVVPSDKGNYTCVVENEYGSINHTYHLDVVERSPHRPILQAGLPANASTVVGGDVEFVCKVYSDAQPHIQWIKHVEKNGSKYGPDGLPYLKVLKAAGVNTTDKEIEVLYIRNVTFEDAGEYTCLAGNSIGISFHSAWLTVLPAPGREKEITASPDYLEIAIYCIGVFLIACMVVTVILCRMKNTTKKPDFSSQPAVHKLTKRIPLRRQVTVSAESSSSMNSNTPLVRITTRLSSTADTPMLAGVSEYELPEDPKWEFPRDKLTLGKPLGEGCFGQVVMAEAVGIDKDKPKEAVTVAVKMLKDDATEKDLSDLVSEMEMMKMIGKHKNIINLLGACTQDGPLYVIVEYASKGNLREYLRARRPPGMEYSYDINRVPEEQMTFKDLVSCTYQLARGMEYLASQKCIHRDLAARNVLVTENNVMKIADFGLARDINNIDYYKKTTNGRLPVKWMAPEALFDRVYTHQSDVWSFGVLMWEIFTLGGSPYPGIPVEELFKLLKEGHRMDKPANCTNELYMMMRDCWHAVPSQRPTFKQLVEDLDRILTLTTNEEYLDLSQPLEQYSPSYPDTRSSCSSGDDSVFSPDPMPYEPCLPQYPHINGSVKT

[7] = biological target: T7, MST2/STK3 (Homo sapiens, UniProt Q13188); test: HotSpot kinase assay; format: biochemical; settings: read-out: % Enzyme Activity (relative to DMSO controls)
T7 construct: purchased Reaction Biology Corporation

[8] = biological target: T8, FGFR4 (Homo sapiens, UniProt P22455); test: HotSpot kinase assay; format: biochemical; settings: read-out: % Enzyme Activity (relative to DMSO controls)
T8 construct: purchased Reaction Biology Corporation

[9] = biological target: T9, BMPR2 (Homo sapiens, UniProt Q13873); test: HotSpot kinase assay; format: biochemical; settings: read-out: % Enzyme Activity (relative to DMSO controls)
T9 construct: purchased Reaction Biology Corporation

[10] = biological target: T10, CK1g3 (Homo sapiens, UniProt Q9Y6M4); test: HotSpot kinase assay; format: biochemical; settings: read-out: % Enzyme Activity (relative to DMSO controls)
T10 construct: purchased Reaction Biology Corporation

[11] = biological target: T11, IRR/INSRR (Homo sapiens, UniProt P14616); test: HotSpot kinase assay; format: biochemical; settings: read-out: % Enzyme Activity (relative to DMSO controls)
T11 construct: purchased Reaction Biology Corporation

[12] = biological target: T12, TLK1 (Homo sapiens, UniProt Q9UKI8); test: HotSpot kinase assay; format: biochemical; settings: read-out: % Enzyme Activity (relative to DMSO controls)
T12 construct: purchased Reaction Biology Corporation

[13] = biological target: T13, HIPK3 (Homo sapiens, UniProt Q9H422); test: HotSpot kinase assay; format: biochemical; settings: read-out: % Enzyme Activity (relative to DMSO controls)
T13 construct: purchased Reaction Biology Corporation

[14] = biological target: T14, TYK1/LTK (Homo sapiens, UniProt P29376); test: HotSpot kinase assay; format: biochemical; settings: read-out: % Enzyme Activity (relative to DMSO controls)
T14 construct: purchased Reaction Biology Corporation

[15] = biological target: T15, PDGFRb (Homo sapiens, UniProt P09619); test: HotSpot kinase assay; format: biochemical; settings: read-out: % Enzyme Activity (relative to DMSO controls)
T15 construct: purchased Reaction Biology Corporation

[16] = biological target: T16, PAK4 (Homo sapiens, UniProt O96013); test: HotSpot kinase assay; format: biochemical; settings: read-out: % Enzyme Activity (relative to DMSO controls)
T16 construct: purchased Reaction Biology Corporation
T16 sequence (O96013 whole entry): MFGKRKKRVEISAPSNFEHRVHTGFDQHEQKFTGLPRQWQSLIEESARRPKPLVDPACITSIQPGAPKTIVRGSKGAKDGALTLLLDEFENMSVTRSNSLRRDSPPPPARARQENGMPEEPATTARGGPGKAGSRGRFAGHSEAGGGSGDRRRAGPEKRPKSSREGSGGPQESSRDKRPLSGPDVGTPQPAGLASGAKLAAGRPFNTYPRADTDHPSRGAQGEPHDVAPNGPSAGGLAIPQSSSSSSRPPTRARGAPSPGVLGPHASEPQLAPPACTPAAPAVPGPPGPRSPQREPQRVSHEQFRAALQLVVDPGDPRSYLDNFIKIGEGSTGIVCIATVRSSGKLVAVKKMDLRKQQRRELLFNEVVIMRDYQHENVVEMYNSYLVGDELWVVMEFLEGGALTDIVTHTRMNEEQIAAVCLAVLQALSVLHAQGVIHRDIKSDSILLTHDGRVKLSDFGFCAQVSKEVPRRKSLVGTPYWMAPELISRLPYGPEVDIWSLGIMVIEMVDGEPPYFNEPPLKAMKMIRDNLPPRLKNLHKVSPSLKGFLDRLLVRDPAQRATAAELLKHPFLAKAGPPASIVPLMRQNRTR

[17] = biological target: T17, CDK6/cyclin D1 (Homo sapiens, UniProt Q00534); test: HotSpot kinase assay; format: biochemical; settings: read-out: % Enzyme Activity (relative to DMSO controls)
T17 construct: purchased Reaction Biology Corporation

[18] = biological target: T18, ULK3 (Homo sapiens, UniProt Q6PHR2); test: HotSpot kinase assay; format: biochemical; settings: read-out: % Enzyme Activity (relative to DMSO controls)
T18 construct: purchased Reaction Biology Corporation

[19] = biological target: T19, DNA-PK (Homo sapiens, UniProt P78527); test: HotSpot kinase assay; format: biochemical; settings: read-out: % Enzyme Activity (relative to DMSO controls)
T19 construct: purchased Reaction Biology Corporation

[20] = biological target: T20, PHKg2 (Homo sapiens, UniProt P15735); test: HotSpot kinase assay; format: biochemical; settings: read-out: % Enzyme Activity (relative to DMSO controls)
T20 construct: purchased Reaction Biology Corporation

[21] = biological target: T21, CK2a2 (Homo sapiens, UniProt P19784); test: HotSpot kinase assay; format: biochemical; settings: read-out: % Enzyme Activity (relative to DMSO controls)
T21 construct: purchased Reaction Biology Corporation

[22] = biological target: T22, EPHA6 (Homo sapiens, UniProt Q9UF33); test: HotSpot kinase assay; format: biochemical; settings: read-out: % Enzyme Activity (relative to DMSO controls)
T22 construct: purchased Reaction Biology Corporation

[23] = biological target: T23, CDK9/cyclin T1 (Homo sapiens, UniProt P50750); test: HotSpot kinase assay; format: biochemical; settings: read-out: % Enzyme Activity (relative to DMSO controls)
T23 construct: purchased Reaction Biology Corporation

[24] = biological target: T24, YSK4/MAP3K19 (Homo sapiens, UniProt Q56UN5); test: HotSpot kinase assay; format: biochemical; settings: read-out: % Enzyme Activity (relative to DMSO controls)
T24 construct: purchased Reaction Biology Corporation

[25] = biological target: T25, DAPK1 (Homo sapiens, UniProt P53355); test: HotSpot kinase assay; format: biochemical; settings: read-out: % Enzyme Activity (relative to DMSO controls)
T25 construct: purchased Reaction Biology Corporation

[26] = biological target: T26, CDK7/cyclin H (Homo sapiens, UniProt P50613); test: HotSpot kinase assay; format: biochemical; settings: read-out: % Enzyme Activity (relative to DMSO controls)
T26 construct: purchased Reaction Biology Corporation

[27] = test system: HSV-2(G); test: HSV plaque assay, HaCat cells; format: cell-based; settings: Human alphaherpesvirus 2, HaCaT, read-out: inhibition of HSV-2 infection
Procedure: After 48 h incubation, plaques were counted by immunoassay using an anti–human IgG antibody peroxidase conjugate (PA1-86064, Thermo Fisher)[33]. […] Western blots were prepared and probed for gD as a marker of bound virus and β-actin as a control.

[28] = biological target: T27, ASK1/MAP3K5 (Homo sapiens, UniProt Q99683); test: HotSpot kinase assay; format: biochemical; settings: read-out: % Enzyme Activity (relative to DMSO controls)
T27 construct: purchased Reaction Biology Corporation
T27 sequence (Q99683 whole entry): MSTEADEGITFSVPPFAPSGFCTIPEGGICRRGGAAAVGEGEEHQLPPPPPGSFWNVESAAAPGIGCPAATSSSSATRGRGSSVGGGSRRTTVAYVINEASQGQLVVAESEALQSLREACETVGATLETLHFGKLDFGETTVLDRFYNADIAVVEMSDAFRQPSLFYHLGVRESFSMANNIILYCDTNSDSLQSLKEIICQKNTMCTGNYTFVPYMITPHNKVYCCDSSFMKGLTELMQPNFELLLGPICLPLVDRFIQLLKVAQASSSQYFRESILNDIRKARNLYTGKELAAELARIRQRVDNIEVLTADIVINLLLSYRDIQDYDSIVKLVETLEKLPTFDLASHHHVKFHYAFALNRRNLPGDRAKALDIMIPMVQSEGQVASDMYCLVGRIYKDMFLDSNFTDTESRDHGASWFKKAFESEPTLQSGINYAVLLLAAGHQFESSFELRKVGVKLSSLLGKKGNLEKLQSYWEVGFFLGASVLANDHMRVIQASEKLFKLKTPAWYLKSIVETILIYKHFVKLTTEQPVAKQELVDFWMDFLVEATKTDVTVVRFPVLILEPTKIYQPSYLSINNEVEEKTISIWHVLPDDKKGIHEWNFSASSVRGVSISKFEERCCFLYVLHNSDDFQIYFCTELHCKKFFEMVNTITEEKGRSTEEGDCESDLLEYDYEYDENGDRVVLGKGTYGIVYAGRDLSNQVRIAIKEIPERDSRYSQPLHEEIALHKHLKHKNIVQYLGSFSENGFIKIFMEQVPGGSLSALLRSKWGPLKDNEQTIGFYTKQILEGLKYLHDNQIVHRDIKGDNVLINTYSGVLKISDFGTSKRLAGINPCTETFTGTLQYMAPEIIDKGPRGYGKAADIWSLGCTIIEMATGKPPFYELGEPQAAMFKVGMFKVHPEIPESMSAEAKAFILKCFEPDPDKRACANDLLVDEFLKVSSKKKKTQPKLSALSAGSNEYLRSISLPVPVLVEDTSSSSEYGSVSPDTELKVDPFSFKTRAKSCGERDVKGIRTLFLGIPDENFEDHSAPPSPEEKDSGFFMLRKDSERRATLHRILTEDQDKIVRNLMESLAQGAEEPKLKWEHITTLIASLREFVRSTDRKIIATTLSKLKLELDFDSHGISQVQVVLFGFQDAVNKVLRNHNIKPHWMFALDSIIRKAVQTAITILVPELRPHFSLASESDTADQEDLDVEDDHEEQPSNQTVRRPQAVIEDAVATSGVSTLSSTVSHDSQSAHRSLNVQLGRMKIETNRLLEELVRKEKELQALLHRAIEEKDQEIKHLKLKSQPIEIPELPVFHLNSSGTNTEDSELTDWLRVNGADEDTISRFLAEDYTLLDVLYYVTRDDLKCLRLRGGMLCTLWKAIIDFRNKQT

[29] = biological target: T28, CAMK1d (Homo sapiens, UniProt Q8IU85); test: HotSpot kinase assay; format: biochemical; settings: read-out: % Enzyme Activity (relative to DMSO controls)
T28 construct: purchased Reaction Biology Corporation

[30] = biological target: T29, SRMS (Homo sapiens, UniProt Q9H3Y6); test: HotSpot kinase assay; format: biochemical; settings: read-out: % Enzyme Activity (relative to DMSO controls)
T29 construct: purchased Reaction Biology Corporation

[31] = biological target: T30, ROS/ROS1 (Homo sapiens, UniProt P08922); test: HotSpot kinase assay; format: biochemical; settings: read-out: % Enzyme Activity (relative to DMSO controls)
T30 construct: purchased Reaction Biology Corporation

[32] = biological target: T31, MARK4 (Homo sapiens, UniProt Q96L34); test: HotSpot kinase assay; format: biochemical; settings: read-out: % Enzyme Activity (relative to DMSO controls)
T31 construct: purchased Reaction Biology Corporation
T31 sequence (Q96L34 whole entry): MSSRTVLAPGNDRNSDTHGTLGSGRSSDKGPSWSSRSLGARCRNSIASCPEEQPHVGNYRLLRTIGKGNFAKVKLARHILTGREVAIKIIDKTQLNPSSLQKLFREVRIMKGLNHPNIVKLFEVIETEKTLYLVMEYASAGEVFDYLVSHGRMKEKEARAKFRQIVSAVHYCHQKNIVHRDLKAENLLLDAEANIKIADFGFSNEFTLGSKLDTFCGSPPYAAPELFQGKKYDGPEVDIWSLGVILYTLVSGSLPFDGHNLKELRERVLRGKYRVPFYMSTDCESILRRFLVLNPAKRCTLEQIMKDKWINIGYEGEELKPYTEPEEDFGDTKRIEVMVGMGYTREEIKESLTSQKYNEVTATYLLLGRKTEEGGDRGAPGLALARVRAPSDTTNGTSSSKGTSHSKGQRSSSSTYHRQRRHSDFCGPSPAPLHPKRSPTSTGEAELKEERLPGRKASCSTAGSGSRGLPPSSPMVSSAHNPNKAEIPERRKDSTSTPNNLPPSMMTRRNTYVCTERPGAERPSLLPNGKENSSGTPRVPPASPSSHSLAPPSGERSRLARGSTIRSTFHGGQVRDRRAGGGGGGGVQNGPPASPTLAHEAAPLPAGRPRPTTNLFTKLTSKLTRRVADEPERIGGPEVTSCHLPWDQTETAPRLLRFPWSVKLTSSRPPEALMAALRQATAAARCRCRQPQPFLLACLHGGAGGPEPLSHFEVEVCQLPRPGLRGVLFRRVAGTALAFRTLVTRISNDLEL

[33] = biological target: T32, CK1a1L (Homo sapiens, UniProt Q8N752); test: HotSpot kinase assay; format: biochemical; settings: read-out: % Enzyme Activity (relative to DMSO controls)
T32 construct: purchased Reaction Biology Corporation
T32 sequence (Q8N752 whole entry): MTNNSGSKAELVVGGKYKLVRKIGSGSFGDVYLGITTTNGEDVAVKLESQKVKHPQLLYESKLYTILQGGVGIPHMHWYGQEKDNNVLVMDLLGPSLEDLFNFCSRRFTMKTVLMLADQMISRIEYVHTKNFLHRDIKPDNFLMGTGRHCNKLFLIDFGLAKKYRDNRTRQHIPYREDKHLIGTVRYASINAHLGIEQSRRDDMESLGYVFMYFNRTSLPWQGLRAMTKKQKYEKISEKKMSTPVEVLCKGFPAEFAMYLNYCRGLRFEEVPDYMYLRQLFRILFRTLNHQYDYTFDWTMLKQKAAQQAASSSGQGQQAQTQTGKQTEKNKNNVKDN

[34] = biological target: T33, TAOK2/TAO1 (Homo sapiens, UniProt Q9UL54); test: HotSpot kinase assay; format: biochemical; settings: read-out: % Enzyme Activity (relative to DMSO controls)
T33 construct: purchased Reaction Biology Corporation
T33 sequence (Q9UL54 whole entry): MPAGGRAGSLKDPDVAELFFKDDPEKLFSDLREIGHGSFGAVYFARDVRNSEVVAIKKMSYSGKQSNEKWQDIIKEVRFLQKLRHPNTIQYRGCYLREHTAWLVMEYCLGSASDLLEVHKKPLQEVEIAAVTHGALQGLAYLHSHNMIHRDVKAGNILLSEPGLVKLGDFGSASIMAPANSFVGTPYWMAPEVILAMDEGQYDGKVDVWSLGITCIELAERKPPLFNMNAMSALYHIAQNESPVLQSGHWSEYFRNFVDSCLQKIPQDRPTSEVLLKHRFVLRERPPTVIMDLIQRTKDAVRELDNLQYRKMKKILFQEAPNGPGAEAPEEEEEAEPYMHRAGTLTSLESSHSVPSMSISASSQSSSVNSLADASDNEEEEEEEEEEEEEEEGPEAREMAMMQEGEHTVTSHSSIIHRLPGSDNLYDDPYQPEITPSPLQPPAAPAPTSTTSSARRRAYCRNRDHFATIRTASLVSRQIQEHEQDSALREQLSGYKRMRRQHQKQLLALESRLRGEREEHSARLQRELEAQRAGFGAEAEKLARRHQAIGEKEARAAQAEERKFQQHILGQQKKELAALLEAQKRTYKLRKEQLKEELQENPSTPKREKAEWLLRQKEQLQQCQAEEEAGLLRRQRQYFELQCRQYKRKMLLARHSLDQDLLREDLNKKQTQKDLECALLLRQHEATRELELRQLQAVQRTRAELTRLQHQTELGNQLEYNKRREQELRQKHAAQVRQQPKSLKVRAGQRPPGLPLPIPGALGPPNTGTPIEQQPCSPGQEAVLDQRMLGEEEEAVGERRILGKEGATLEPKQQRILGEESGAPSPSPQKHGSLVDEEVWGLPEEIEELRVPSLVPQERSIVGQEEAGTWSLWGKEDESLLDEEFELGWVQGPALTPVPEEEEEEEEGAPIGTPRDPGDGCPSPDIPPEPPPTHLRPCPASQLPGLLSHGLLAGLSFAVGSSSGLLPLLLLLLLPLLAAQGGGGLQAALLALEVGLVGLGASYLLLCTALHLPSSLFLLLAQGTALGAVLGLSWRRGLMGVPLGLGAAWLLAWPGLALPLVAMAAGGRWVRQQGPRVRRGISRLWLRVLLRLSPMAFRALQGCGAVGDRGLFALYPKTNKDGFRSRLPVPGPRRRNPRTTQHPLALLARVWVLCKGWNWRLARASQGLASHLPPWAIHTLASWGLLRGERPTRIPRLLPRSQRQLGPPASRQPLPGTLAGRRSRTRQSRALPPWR

[35] = biological target: T34, CAMK1a (Homo sapiens, UniProt Q14012); test: HotSpot kinase assay; format: biochemical; settings: read-out: % Enzyme Activity (relative to DMSO controls)
T34 construct: purchased Reaction Biology Corporation

[36] = biological target: T35, GSK3a (Homo sapiens, UniProt P49840); test: HotSpot kinase assay; format: biochemical; settings: read-out: % Enzyme Activity (relative to DMSO controls)
T35 construct: purchased Reaction Biology Corporation

[37] = biological target: T36, SRPK2 (Homo sapiens, UniProt P78362); test: HotSpot kinase assay; format: biochemical; settings: read-out: % Enzyme Activity (relative to DMSO controls)
T36 construct: purchased Reaction Biology Corporation

[38] = test system: PLSCR1; format: cell-based, monkey; settings: 30 min; drugs 10 μM, immunoglobulins 10 μg/ml
[39] = in vitro; settings: human, Huh-7.5 cells infected with SARS-CoV-2
[40] = biological target: T37, CDK2/cyclin E2 (Homo sapiens, UniProt P24941); test: HotSpot kinase assay; format: biochemical; settings: read-out: % Enzyme Activity (relative to DMSO controls)
T37 construct: purchased Reaction Biology Corporation

With `CO[C@@H]1[C@H](N(C)C(=O)CCC(=O)NCc2cn(CCCS(=O)(=O)O)nn2)C[C@H]2O[C@]1(C)n1c3ccccc3c3c4c(c5c6ccccc6n2c5c31)C(=O)NC4` [CIMSS] the remaining activity at 10 µM [1] was 2.38%, the remaining activity at 10 µM [2] was 70% and the remaining activity at 10 µM [3] was 110%. The remaining activity at 10 µM [4] was 1.25%, the remaining activity at 10 µM [5] was 4.49% and the remaining activity at 10 µM [6] was 2.58%. For the same compound, the remaining activity at 10 µM [7] was 3.52%, the remaining activity at 10 µM [8] was 4.31% and the remaining activity at 10 µM [9] was 50.4%. It also gave a remaining activity at 10 µM [10] of 97.2%, a remaining activity at 10 µM [11] of 4.68% and a remaining activity at 10 µM [12] of 26.1%. The remaining activity at 10 µM [13] was 14.5%, the remaining activity at 10 µM [14] was 7.18% and the remaining activity at 10 µM [15] was 1.9%. For the same compound, the remaining activity at 10 µM [16] was 7.78%, the remaining activity at 10 µM [17] was 63% and the remaining activity at 10 µM [18] was 14.2%. The remaining activity at 10 µM [19] was 98.2%, the remaining activity at 10 µM [20] was 18.4% and the remaining activity at 10 µM [21] was 44.6%. It also gave a remaining activity at 10 µM [22] of 34.6%, a remaining activity at 10 µM [23] of 13.1% and a remaining activity at 10 µM [24] of 3.4%. It also gave a remaining activity at 10 µM [25] of 13.6%, a remaining activity at 10 µM [26] of 65.6% and an inhibition at 10 µM [27] greater than 75%. It also gave a remaining activity at 10 µM [28] of 6.25%, a remaining activity at 10 µM [29] of 20.3% and a remaining activity at 10 µM [30] of 91%. It also gave a remaining activity at 10 µM [31] of 4.57%, a remaining activity at 10 µM [32] of 0.77% and a remaining activity at 10 µM [33] of 82.8%. The remaining activity at 10 µM [34] was 36.3%, the remaining activity at 10 µM [35] was 28.7% and the remaining activity at 10 µM [36] was 2.72%. For the same compound, the remaining activity at 10 µM [37] was 8.02%, the “Phosphorylation of PLSCR1” value [38] was “preserved” and the viability at 24 h, 0.78125 µM [39] was 84.7%. For the same compound, the viability at 24 h, 1.5625 µM [39] was 85.5%, the viability at 24 h, 3.125 µM [39] was 87.6% and the viability at 24 h, 25 µM [39] was 87.9%. For the same compound, the viability at 24 h, 50 µM [39] was 97.2%, the viability at 72 h, 0.78125 µM [39] was 94.8% and the viability at 72 h, 25 µM [39] was 80.4%. For the same compound, the viability at 72 h, 50 µM [39] was 70.1% and the remaining activity at 10 µM [40] was 11.8%.
